Measurements from publication PMC2360547 (British Journal of Cancer, 2006).
Values joined by “and” are separate entries in the source; they are usually repeats but may differ in a detail not shown here. Identical values can stand only once. “Also recorded” adds a separate entry of the source. Like-named read-outs stand apart in the source and are kept apart here.

What was measured:
[1] = tested on: patients with advanced cancer; details: ref Propper et al, 2001, cited from earlier work
metastatic melanoma = assay: Phase IIA clinical trial: tumour response, survival, performance status; assay type: in vivo, human; design: key to Best response: PD: progressive disease; SD: stable disease (<25% increase overall diameter of any lesion; no new lesions, after at least 4 weeks); NA: not assessable
From the text: There was no limit on the amount of prior therapy, but no prior chemotherapy or immunotherapy was permitted in the 4 weeks before study entry. Patients with CNS metastases were eligible. At least the first 14 patients entered were also required to have at least two lesions suitable for excision biopsy (skin, subcutaneous metastases). Written informed consent was obtained from all patients and the protocol was approved by the Human Research Ethics Committees of the participating institutions.
This fixed dose schedule was calculated from the Phase I study, in which higher single daily doses were associated with more GIT toxicity.
Patients were reviewed for safety and efficacy of midostaurin weekly for the first month, and then on a monthly basis, or more frequently where symptoms warranted. Disease sites were re-evaluated by clinical examination monthly or CT every 2 months, or more frequently if disease progression was suspected.
(§1) It was planned to recruit 14 patients with disease suitable for biopsy as the first cohort. […] If at least one response occurred, a further 13 patients (not necessarily with disease suited for biopsy) would be recruited. Response and toxicity were assessed using WHO criteria.

PKCα = tested on: PKCα; design: method as in Fabbro et al, 2000; details: ref Fabbro et al, 2000; cited from earlier work
[2] = design: method as in Novartis internal report; details: ref Novartis internal report; cited from earlier work
[3] = Plasma concentrations by HPLC with fluorescence detection; assay type: in vivo, human; details: for concentration at 28 day: human, plasma, oral
Protocol: Therefore, the tumour tissue was frozen and cut into as small as possible pieces with a scalpel. The pieces were weighed, added to 1 ml of water, vortexed and thereafter treated like plasma. The assay for plasma samples was validated with acceptable calibration curves, within-study variability and total recovery. […] Due to limited availability of tumour tissue, the within-study validation for tumour assay was not performed.

[4] = design: method as in Propper et al, 2001; details: Phase I trial, oral; ref Propper et al, 2001; cited from earlier work
PKC = tested on: PKC
Protocol: Tumour biopsies were immediately frozen in liquid nitrogen and stored at −70°C until analysis. Heparinised blood (10 ml) was collected predose and at day 28.
Tumours were powdered in liquid nitrogen and homogenised on ice using an Ultra-Turrax in a buffer containing 20 mM HEPES, pH 7.4, 2 mM EDTA, 25 mM β-glycerophosphate, 0.2 mM DTT, 10 μg ml^−1 leupeptin, 10 μg ml^−1 aprotinin, 1 μg ml^−1 pepstatin, 1 μM sodium orthovanadate and 0.5 mM PMSF. Extracts were then sonicated in an ice cold sonicating bath for 5 min before centrifugation at 1000 g for 5 min to remove cellular debris. Supernatants were centrifuged at 50 000 g for 15 min to separate cytosolic (supernatant) and particulate (pellet) fractions. The supernatant was kept as ‘cytosolic’ fraction. The pellet was further extracted by resuspension in the original lysis buffer including 1% NP-40. Following sonication for 5 min on ice, the extract was centrifuged at 50 000 g for 15 min. The supernatant from this spin (which derived from the original pellet) was kept as the ‘particulate’ fraction. All steps were performed at 4°C or on ice.
The protein concentrations of the cytosolic and particulate fractions were measured after TCA precipitation using the Dc protein assay kit (Bio-Rad).
Intratumoral total PKC activity was measured in cytosolic and particulate fractions using protamine sulphate as the substrate, following the method of a validated assay ([Budworth and Gescher, 1995]). The PKC assay was performed with 4–5 μl of the cytosol or particulate extract (2–50 μg protein) in a total reaction volume of 200 μl, including 200 μg ml^−1 protamine sulphate, 150 μM (γ-^32P)ATP (200 c.p.m. pmol^−1) in a buffer containing 20 mM Tris-HCl, pH 7.4, 10 mM magnesium acetate and 0.5 mM EGTA. The reaction was terminated after 6–7 min (30°C) by spotting 35 μl of the mix onto P81 phosphocellulose paper, followed by washing in 75 mM phosphoric acid. Bound, phosphorylated protamine sulphate was quantitated by scintillation counting of the phosphocellulose papers. Protein kinase C activity was determined by phosphate incorporation into protamine sulphate and expressed as picomolar of phosphate transferred min mg^−1 protein. Measurements were performed in triplicate. Each patient's pretreatment and day 28 biopsies were processed together and analysed in the same assay run. Up to six patients’ samples could be analysed in one day to minimise interassay variability.

[5] = tested on: patients with metastatic melanoma; assay: Phase IIA clinical trial: safety and toxicity; assay type: in vivo, human
Protocol: Disease sites were re-evaluated by clinical examination monthly or CT every 2 months, or more frequently if disease progression was suspected.
as §1

[6] = one patient resistant to midostaurin with abundance of PKCξ

CO[C@@H]1[C@H](N(C)C(=O)c2ccccc2)C[C@H]2O[C@]1(C)n1c3ccccc3c3c4c(c5c6ccccc6n2c5c31)C(=O)NC4 [Midostaurin, N-benzoyl-staurosporine]
Response in two patients with cholangiocarcinoma ([1]; for 4 months on midostaurin): one had stable disease and one a partial response
MTD ([1]; oral, 12.5–300 mg day−1): not reached
Patients with nausea/vomiting ([1]; oral, 225–300 mg day−1 (grade 3 in 3)): 15 out of 16
Patients with grade 2 diarrhoea ([1]; oral, 225–300 mg day−1): six out of 16
Median survival (metastatic melanoma; 17 patients, 75 mg p.o. t.i.d.): 43 days
Survival, range (metastatic melanoma; 17 patients, 75 mg p.o. t.i.d.): 8 to 113 days
Tumour response (metastatic melanoma; 17 patients, midostaurin 75 mg p.o. t.i.d.): No tumour responses were seen; also recorded: No patient obtained a tumour response
Patients with no change of ECOG performance status (metastatic melanoma; eight patients, on study): 47%
Patients with progressive disease (metastatic melanoma; fourteen out of 17 patients, 75 mg p.o. t.i.d.): 82%
Duration of stable disease (best response duration) (metastatic melanoma; individual patients with stable disease, midostaurin 75 mg p.o. t.i.d.): 50 days and 85 days
Best response (metastatic melanoma; individual patients, midostaurin 75 mg p.o. t.i.d., WHO criteria): PD and SD (2×)
Patients with worsening of ECOG performance status (metastatic melanoma; nine patients, on study): 53%
Patients with stable disease (metastatic melanoma; two out of 17 patients, 75 mg p.o. t.i.d.): 12%
IC50 (PKCα): 22 nM
Plasma protein binding [2]: 99%
concentration at 28 day ([3]; 75 mg three times a day, calculated for median plasma concentration of 2342 nM and 99% protein binding, read-out: Free plasma concentration): 23.4 nM
concentration at 28 day ([3]; 75 mg tid, 12 subjects, about 1 month of 75 mg tid, read-out: Plasma concentrations, maximum): 4650 nM
concentration at 28 day ([3]; 75 mg tid, 12 subjects, about 1 month of 75 mg tid, read-out: Plasma concentrations, mean): 2450 nM
concentration at 28 day ([3]; 75 mg tid, 12 subjects, about 1 month of 75 mg tid, read-out: Plasma concentrations, median): 2340 nM
concentration at 28 day ([3]; 75 mg tid, 12 subjects, about 1 month of 75 mg tid, read-out: Plasma concentrations, minimum): 771 nM
concentration at 28 day ([3]; 75 mg tid, 12 subjects, about 1 month of 75 mg tid, read-out: Plasma trough concentrations, range): 771 to 4650 nM
Plasma concentrations ([3]; individual subjects, sampling day 27-30, midostaurin 75 mg tid): 2614 nM and 1639 nM and 771 nM and 2901 nM and 2226 nM and 2387 nM and 4649 nM and 1765 nM and 1437 nM and 2297 nM and 3549 nM and 3212 nM
Elimination t1/2, range [4]: 22 to 96 h
Estimated median elimination t1/2 [4]: 38.4 h
Effect on phosphorylation of protamine sulphate (PKC; 10 μM added to melanoma biopsies from nontrial patients): inhibited phosphorylation
Reduction of cytosolic PKC activity compared to pretreatment biopsy (PKC; day 28 tumour biopsy, in seven out of nine patients): 7–91%
Change of cytosolic PKC activity (PKC; [6]): unchanged
Increase in particulate PKC activity (PKC; [6]): 65%
Percentage of total PKC activity present in the particulate fraction (PKC; patient 10, day 28 (day 0: 19.1%)): 15.4%
Percentage of total PKC activity present in the particulate fraction (PKC; patient 11, day 28 (day 0: 15.7%)): 11.1%
Patients with anaemia ([5]; 17 patients): 12 patients
Patients with anaemia reaching grade 2 ([5]; 17 patients): five
Patients requiring dose modification for nausea or vomiting ([5]; 17 patients, 75 mg p.o. t.i.d.): Two
Patients with hyperglycemia ([5]; 17 patients, one of Grade 2 severity): Four
Patients with elevated liver enzymes (alanine transaminase or aspartate transaminase) possibly linked to therapy ([5]; 17 patients, only one reached grade 2): four
Patients who discontinued owing to nausea, vomiting, diarrhoea and/or fatigue possibly related to study drug ([5]; seven out of 17 patients, 75 mg p.o. t.i.d.): 41%
